The source of these data is ChEMBL document CHEMBL1156955 (Bioorg Med Chem Lett, 2010).

Usually Vd stands for a proportionality between amount in the body and measured concentration, not a real space. A word on the AUC(0-inf): it is total exposure, with the tail of the curve extrapolated. High values mean more exposure, low ones less exposure.

The nature of data set [1]: Volume of distribution in mouse at 5 mg/kg, iv. The data set is classed as ADME, organism-based. The arrangement: dose 5 mg/kg, route intravenous. Particulars: in vivo.
Data set [2] in a line: Drug level in tumor of human MDA-MB-361 cells xenografted nude mouse at 25 mg/kg, iv after 8 hrs. The data set is classed as ADME, organism-based, Neoplasm. Set-up: dose 25 mg/kg, route intravenous. Particulars: read-out: Drug uptake.
A short description of data set [3]: AUC (0 to infinity) in mouse at 5 mg/kg, iv. It is filed as ADME, organism-based. Set-up: time infinity, dose 5 mg/kg, route intravenous. The conditions noted are these: plasma.
Data set [4] can be described thus: Drug level in plasma of nude mouse bearing human MDA-MB-361 cells at 25 mg/kg, iv after 8 hrs. It is filed as ADME, organism-based. The arrangement: dose 25 mg/kg, route intravenous. The conditions noted are these: read-out: Drug uptake.

The molecule `CC(C)N1CCN(C(=O)c2ccc(NC(=O)Nc3ccc(-c4nc(C5CCOCC5)nc(N5C6CCC5COC6)n4)cc3)cc2)CC1` came in with a Vd in data set [1] of 1.3 L/kg. Moreover, the values for the concentration at 8 h in data set [2] and in data set [4] were 2470 ng/mL and 2160 ng/mL, respectively. In data set [3], this molecule yielded an area under the curve AUC(0-inf) of 16700 ng·h/mL.
